Laboratory results as given in PubChem BioAssay AID743154 (The Scripps Research Institute Molecular Screening Center, 2013).
Activity calls are given as the source filed them. The rule behind the calls is not given here.

Target: methionyl-tRNA synthetase (Trypanosoma brucei brucei)
Assay: T. brucei MetRS inhibitors, orthogonal readout, late-stage follow-up, orthogonal assay for T. brucei MetRS inhibitor project, biochemical, fluorescence polarization, dose response, round 1 (AID 743154)

IC50	SMILES
> 119 µM (inactive)	O=C1CC(NCCc2ccccc2)C(=O)N1c1ccc(Br)cc1 (stereo unspecified)
3.55 µM	Cc1ccc(C(=O)NCCc2nc3ccccc3[nH]2)cc1[N+](=O)[O-]
> 119 µM (inactive)	COc1ccc(NC(=O)C2CC(=O)n3c(nc4ccccc43)N2)cc1 (stereo unspecified)
> 39.5 µM (inactive)	O=C(Cn1cc(C(=O)C2CC2)c2ccccc21)Nc1cccc(C(F)(F)F)c1
inactive	COc1ccccc1NC(=O)CSc1nnc2c(n1)[nH]c1ccc(C)cc12
3.5 µM	CCN(CC)C(=O)C(=O)c1cn(CC(=O)Nc2cccc(OC)c2)c2ccccc12
inactive	Cc1ccc(CNC(=O)CSc2nnc3c(n2)[nH]c2ccc(C)cc23)cc1
> 119 µM (inactive)	Cc1cccc2[nH]c(CCN(C)C(=O)c3cccc(C4CCNC4)c3)nc12 (stereo unspecified)
> 13.2 µM (inactive)	Cc1ccc(C(=O)NCCc2nc3ccccc3[nH]2)cc1C
> 119 µM (inactive)	COc1ccc(CCN(C(=O)c2cccc(F)c2)C2CC(=O)N(c3ccc(Br)cc3)C2=O)cc1 (stereo unspecified)
inactive	O=C(CSC1CC(=O)N(c2cccc(Cl)c2)C1=O)Nc1ccc(Br)cc1 (stereo unspecified)
> 119 µM (inactive)	CCN(C(=O)Cn1cc(C(=O)C(=O)N2CCOCC2)c2ccccc21)c1ccccc1
> 39.5 µM (inactive)	CCc1ccc2[nH]c3nc(SCC(=O)NCc4cccc(OC)c4)nnc3c2c1
> 39.5 µM (inactive)	COCCc1nc2ccc(C(=O)NCCc3nc4ccc(OC)cc4[nH]3)cc2o1
> 119 µM (inactive)	CCN(CC)C(=O)C(=O)c1cn(CC(=O)Nc2ccccc2OC)c2ccccc12
> 39.5 µM (inactive)	O=C(Cn1cc(C(=O)COc2ccccc2)c2ccccc21)Nc1cccc(C(F)(F)F)c1
0.676 µM	COc1ccc(CCN(C(=S)Nc2ccccc2)C2CC(=O)N(c3ccc(Cl)cc3)C2=O)cc1 (stereo unspecified)
inactive	O=C(Cn1cc(C(=O)c2ccccc2)c2ccccc21)Nc1cccc(C(F)(F)F)c1
> 119 µM (inactive)	COc1ccccc1NC(=O)Cn1cc(C(=O)C(=O)N2CCOCC2)c2ccccc21
> 39.5 µM (inactive)	CC(=O)N(CCc1ccccc1)C1CC(=O)N(c2ccc(Cl)cc2)C1=O (stereo unspecified)
> 39.5 µM (inactive)	Cc1cc2cc(C(=O)N3CCCC(c4nc5ccccc5[nH]4)C3)ccc2o1 (stereo unspecified)
1.77 µM	O=C(Nc1ccc(F)c(Cl)c1)C1CC(=O)n2c(nc3ccccc32)N1 (stereo unspecified)
> 119 µM (inactive)	CC1Cc2ccccc2N1C(=O)Cn1cc(C(=O)C(=O)N2CCOCC2)c2ccccc21 (stereo unspecified)
> 39.5 µM (inactive)	Cn1c(CCNC(=O)c2ccc(Cl)cc2)nc2ccccc21
> 119 µM (inactive)	COc1ccc(NC(=O)CSc2nnc3c4cc(C)ccc4n(C)c3n2)cc1
> 119 µM (inactive)	CCc1ccc2c(c1)c1nnc(SCC(=O)Nc3ccc4c(c3)OCO4)nc1n2C

IC50	SMILES
> 39.5 µM (inactive)	Cc1cccc(NC(=O)C2CC(=O)n3c(nc4ccccc43)N2)c1 (stereo unspecified)
> 13.2 µM (inactive)	COc1cccc(NC(=O)C2CC(=O)n3c(nc4ccccc43)N2)c1 (stereo unspecified)
0.901 µM	O=C(NCCc1nc2ccccc2[nH]1)c1ccc(Cl)c(Cl)c1
> 39.5 µM (inactive)	Cc1cccc2[nH]c(C3CCCN(C(=O)c4cccc5cccnc45)C3)nc12 (stereo unspecified)
0.167 µM	CCN(CC)C(=O)C(=O)c1cn(CC(=O)Nc2cccc(C(F)(F)F)c2)c2ccccc12
> 119 µM (inactive)	O=C(Cn1cc(C(=O)C(=O)N2CCOCC2)c2ccccc21)NCC1CCCO1 (stereo unspecified)
> 13.2 µM (inactive)	O=C(C(=O)N1CCOCC1)c1cn(CC(=O)N2CCCc3ccccc32)c2ccccc12
> 119 µM (inactive)	O=C(Cn1cc(C(=O)C(=O)N2CCCC2)c2ccccc21)Nc1ccccc1
0.326 µM	CNC(=S)N(CCc1ccccc1)C1CC(=O)N(c2ccc(Br)cc2)C1=O (stereo unspecified)
> 119 µM (inactive)	O=C(NCCc1nc2ccccc2[nH]1)c1c(F)cccc1F
> 119 µM (inactive)	CC(C)c1nc2ccc(C(=O)N(C)CCc3nc4ccc(F)cc4[nH]3)cc2o1
> 39.5 µM (inactive)	CCN(CC)C(=O)C(=O)c1cn(CC(=O)N(CC)c2ccccc2)c2ccccc12
> 119 µM (inactive)	Cc1ccc2[nH]c3nc(SCC(=O)Nc4ccc(C(F)(F)F)cc4)nnc3c2c1
> 39.5 µM (inactive)	CC(=O)c1cn(CC(=O)Nc2cccc(C(F)(F)F)c2)c2ccccc12
> 119 µM (inactive)	CCN(CC)C(=O)C(=O)c1cn(CC(=O)N2CCCc3ccccc32)c2ccccc12
> 39.5 µM (inactive)	Cc1cccc(C(=O)NCCc2nc3ccccc3n2CCOc2ccccc2)c1
> 119 µM (inactive)	CCN(CCc1nc2ccc(C)cc2[nH]1)C(=O)c1ccc2ncccc2c1
> 39.5 µM (inactive)	CCCCn1c(CCNC(=O)c2ccc(F)cc2)nc2ccccc21
> 119 µM (inactive)	O=C(Cn1cc(C(=O)C(=O)N2CCOCC2)c2ccccc21)NCc1ccccc1
> 39.5 µM (inactive)	CC(=O)N(CCc1ccccc1)C1CC(=O)N(c2ccc(Br)cc2)C1=O (stereo unspecified)
0.666 µM	O=C(CSc1nnc2c(n1)[nH]c1ccc(Br)cc12)NCc1ccccc1
2.92 µM	O=C(Cn1cc(C(=O)c2ccco2)c2ccccc21)Nc1cccc(C(F)(F)F)c1
5.37 µM	O=C(NCCc1nc2ccccc2[nH]1)c1ccc(Cl)cc1
> 39.5 µM (inactive)	CCC(=O)c1cn(CC(=O)Nc2cccc(C(F)(F)F)c2)c2ccccc12
1.35 µM	O=C(NCCc1nc2ccccc2[nH]1)c1ccc(Cl)cc1Cl
